US10583119B2, “Compounds, compositions and methods for making the same” (Signum Biosciences, Inc., priority 2008, dated 2020)
Entries after “also recorded” stand apart in the source; their conditions may differ.

Assays:
[1] = test system: Thyl-alpha-synuclein transgenic mice; test: Locomotor tests (open field, rota-rod) in alpha-synuclein over-expressing mice; type: in vivo; conditions: 0.001% diet (p=0.068)
Method: Transgenic mice over-expressing the full length human alpha-synuclein have been described previously, and are excellent models for sensorimotor tests that are sensitive to alterations in the nigrostriatal dopaminergic system [Fleming, S. M. et. al, J. Neurosci. 24, 9434-40, (2004)].
Thyl-alpha-synuclein transgenic mice (9-12 weeks old) and age-matched wild type mice were housed in clear plastic cages in a temperature-, and humidity-controlled environment with a 12 hour-light/dark cycle (light switched on at 7 a.m.), and were maintained on an ad libitum diet of lab chow and water. The animal feeds used were either normal (Control) or formulated with Compound I-63 at 0.001% and 0.1%. […]
Locomotor activity was assessed in an open field paradigm by a Digiscan activity monitor utilizing a grid of infrared beams that record the location and path of the animal (horizontal activity) as well as the number of rearing movements (vertical activity). […] Each mouse was then placed in the middle of an open field chamber (42×42 cm acrylic animal cages, AccuScan Instruments) and locomotion was recorded for 10 min. The infrared light beam sensors were connected to a computer that recorded animal position every millisecond. […] The total number of squares crossed by each mouse was recorded and average horizontal and vertical activities was determined for each group of mice. […]

[2] = molecular target: T1, protein phosphatase 2A specific methyltransferase (MTase) (Homo sapiens, UniProt Q9UIC8); test: PP2A methylation in 96-well plate format (methyltransferase activity); type: biochemical; conditions: purified PP2A, MTase and [3H]-SAM; read-out: MT (IC50)
T1 construct: His; made in house
T1 sequence (Q9UIC8 whole entry): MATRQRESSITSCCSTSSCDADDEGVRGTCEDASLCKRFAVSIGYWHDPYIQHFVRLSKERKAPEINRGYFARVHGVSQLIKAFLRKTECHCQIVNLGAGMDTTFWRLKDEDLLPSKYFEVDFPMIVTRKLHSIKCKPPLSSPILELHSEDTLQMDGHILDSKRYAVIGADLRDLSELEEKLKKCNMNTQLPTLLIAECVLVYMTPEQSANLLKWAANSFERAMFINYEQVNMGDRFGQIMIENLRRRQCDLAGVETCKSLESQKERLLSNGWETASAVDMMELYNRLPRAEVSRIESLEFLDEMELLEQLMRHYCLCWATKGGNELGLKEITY
Method: Purified PP2A, MTase and [^3H]-SAM, were incubated in reaction buffer at 37° C. At the end of the reaction, mixture was added onto the membranes of 96-well filter plate (Multiscreen™, Millipore). The membranes were then pre-wetted with 70% ethanol (50 μL/well) and then subsequently washed with water (2×200 μL/well). The reaction in each well was terminated and the proteins (5 μL-20 μL) were precipitated by adding 25% ice-cold TCA. The plate was kept on ice for 30 minutes to ensure completion of protein precipitation. Excess of the free SAM was then removed by washing with 5% cold TCA ([…]) and 70% cold ethanol (2×100 μL/well). Membranes were air-dried, radioactivity in each well was counted by TopCount^NXT scintillation counter (Packard) with 25 μL/well of Microsinct™ 20 (PerkinElmer).

[3] = test system: Swiss-Webster (wild-type) mice; test: Glucose metabolism (intraperitoneal glucose tolerance test, body weight) in wild-type mice; type: in vivo; conditions: 0.1% in diet for 128 days
Description: The glucose tolerance test (GTT) measures the body's ability to metabolize glucose. It is currently used to diagnose patients with prediabetes disposition and diabetes.
Twenty (20) Swiss-Webster (wild-type) mice were acclimated for 2 weeks. The mice were ear notched for identification and housed in individually and negatively ventilated polycarbonate cages with HEPA filtered air at a density of 6 mice per cage. Bed-o-cob corn cob bedding was used and cages were changed every two weeks. The animal room was lighted entirely with artificial fluorescent lighting, with a controlled 12 h light/dark cycle (7 am to 7 pm light). The normal temperature and relative humidity ranged in the animal rooms are 22±4° C. and 50±15%, respectively. The animal rooms were set to have 15 air exchanges per hour. Filtered tap water, acidified to a pH of 2.8 to 3.2. LabDiet D10001 was provided ad libitum, and leftover food was removed once per week.
Following acclimation, mice are assigned to groups according to diet. • 1. Control Diet (D10001) • 2. Compound I-63 ((D10001 with 0.1% 1-63)
The mice were maintained on the diet for 128 days. […] Mice were weighed and glucose dose calculated for […] body weight. […] Blood glucose levels were measured with the OneTouch UltraSmart electronic glucometer at time point O with tail vein blood. […] Blood glucose was measured at 15, 30, 45, 90 and 120 minutes after glucose injection.

phosphorylated Tau = test: Phosphorylated tau in vivo at four weeks (pS396 Western blot of brain); parameters: species or system mice; conditions: 0.1% in chow, phospho-Serine 396
Method: Swiss Webster mice (9-12 weeks old) were fed ad libitum, either standard rodent chow (Control), or rodent chow formulated with 0.1 g Compound I-63 per 100 g chow (0.1% Compound I-63) or 0.1 g Compound I-62 per 100 g chow (0.1% Compound I-62); water was changed weekly. Mice were housed at 23° C., on a 12 hour light and dark cycle, with 6 mice per cage. At 4 weeks, six mice from the Control, 0.1% Compound I-63 and 0.1% Compound I-62 groups were sacrificed by cervical dislocation, brains removed, snap-frozen in liquid nitrogen, and stored at −80° C. Brains were homogenized in 350 pi of buffer containing 20 mM MOPS-Na, pH 7.2, 1 mM EDTA/DTT, 0.5 mg/L of aprotinin, leupeptin and pepstatin, 100 nM okadaic acid, and clarified by centrifugation (14000 rpm, 10 min, 4° C.). Supernatant protein concentrations were measured by the Bradford method, 4 volumes of the supernatant and 1 volume of 5×SDS sample buffer were mixed and boiled for 2 minutes. Boiled homogenate ([…]) were loaded on 12% polyacrylamide gels, and transferred to nitrocellulose membranes. […] Protein bands were detected with the ECL Plus reagent (GE Healthcare) and blots scanned on a Molecular Dynamics Storm Imager. […]

IC50 [2]: 10 to 100 µM
Compound: CCCCCCCCCCCCCCCCCCCC(=O)NCCc1c[nH]c2ccc(O)cc12 [Compound I-63, N-(2-(5-hydroxy-1H-indol-3-yl)ethyl)icosanamide]
horizontal activity [1]: increase | glucose tolerance in intraperitoneal glucose tolerance test [3]: consistently lower glucose levels; also recorded: improved glucose tolerance | incremental area under the curve of blood glucose levels in the glucose tolerance test compared to control diet [3]: < 10% | lowering of phosphorylated tau levels in the brain compared to control (phosphorylated Tau): 40%
